A short description of this data set: in vitro. To be noted: human, hela cells, % viability.

This passage reports viability results from article PMC12040169 (PLOS Biology, 2025).

One may read the viability as a read-out of living cells in per cent, often relative to untreated cells.

Each structure is given as a SMILES string.

With `CC(C)(Oc1ccc(Br)cc1)C(=O)NCCOc1ccccc1` [CBK268287], the viability at 28.5 h, 10 µM came out at 114%.

For the compound `Cc1c(C#N)c(=O)oc2ccccc12` [CBK007705], the viability at 28.5 h, 10 µM stood at 95.2%.

Consider `C/C(CC(=O)Nc1ccc(C)cc1)=N\NC(=O)c1cccc(O)c1` [CBK262618], for which the viability at 28.5 h, 10 µM worked out at 104%.

`Cc1ccc(-c2c[nH]c([C@@H]3COCCN3Cc3c[nH]c4ccccc34)n2)cc1` [CBK289308]: the viability at 28.5 h, 10 µM came out at 106%.

On to `N#Cc1ccc(CN2C(=O)c3ccccc3C2=O)cc1` [CBK029022], for which the viability at 28.5 h, 10 µM is 100%.

Regarding `O=C(O)CNC(=O)CCS(=O)(=O)c1ccc(F)cc1` [CBK286580], the viability at 28.5 h, 10 µM is 86.1%.

For the compound `COC(=O)c1cc(C(=O)CSc2nc(N)cc(O)n2)ccc1O` [CBK110407], the viability at 28.5 h, 10 µM worked out at 92.2%.

With `COc1cc(/C=C2/SC(=S)N(CCC(=O)N3CCN(C)CC3)C2=O)cc(OC)c1OC` [CBK263656], the viability at 28.5 h, 10 µM stood at 88.1%.

`COc1ccc(Sc2ncccc2C(F)(F)F)cc1OC` [CBK093760]: the viability at 28.5 h, 10 µM came to 100%.

Consider `CCOC(=O)NC(Nc1nc2ccccc2s1)(C(F)(F)F)C(F)(F)F` [CBK008913], for which the viability at 28.5 h, 10 µM was 93.6%.

On to `CCCc1cc(=O)[nH]c2nnc(SCC(=O)NC)n12` [CBK287685], for which the viability at 28.5 h, 10 µM worked out at 95.3%.

Take `Cc1[nH]cnc1CN1CCc2c(c3ccccc3n2C)C1=O` [CBK002383C]: the viability at 28.5 h, 10 µM turned out to be 63.5%.

On to `COc1cc(Nc2nc(-c3ccc4[nH]ccc4c3)cn3ccnc23)cc(OC)c1OC` [CBK038069], for which the viability at 28.5 h, 10 µM was 95.5%.

Turning to `Cc1ccc(-c2nnc(CNC(=O)c3cccc(-c4ccc(F)cc4)c3)o2)s1` [CBK286300], the viability at 28.5 h, 10 µM is 109%.

With `CCOC(=O)Cc1csc(SCC(=O)N2CCc3ccccc32)n1` [CBK306190], the viability at 28.5 h, 10 µM stood at 88.8%.

`O=C(Cc1c[nH]c2ccccc12)N1CCC2(CCCN(C(=O)c3cscn3)C2)C1` (stereo not shown) [CBK131590]: the viability at 28.5 h, 10 µM was found to be 99.1%.

On to `CCn1c(SCC(=O)Nc2ccc(C(=O)O)cc2)nnc1-c1ccccc1C` [CBK265927], for which the viability at 28.5 h, 10 µM was determined as 107%.

Regarding `COc1cc(CNc2cncc(-c3ccc(N)cc3)n2)cc(OC)c1OC` [CBK065483], the viability at 28.5 h, 10 µM came out at 96.5%.

In the case of `CCn1cc(C2CN(S(=O)(=O)c3sc(C)nc3C)CCO2)cn1` (stereo not shown) [CBK305420], the viability at 28.5 h, 10 µM came to 96.8%.

As for `CC1CN(Cc2c(C(C)C)[nH]c3ncccc23)CC(C)O1` (stereo not shown) [CBK282900], the viability at 28.5 h, 10 µM was 93.7%.

On to `COc1cc(C2Nc3ccccc3-c3nc(SC)nnc3O2)ccc1OCC(=O)O` (stereo not shown) [CBK262687], for which the viability at 28.5 h, 10 µM was 94.3%.

`COc1ccc(CN2CCN(C)CC2)cc1OCc1ccccc1` [CBK261886]: the viability at 28.5 h, 10 µM was 88.2%.

As for `CCc1ccc(-c2csc(NS(=O)(=O)c3cccc(C(=O)O)c3)n2)cc1` [CBK296726], the viability at 28.5 h, 10 µM is 91%.

Take `COc1ccc(NC(=O)N[C@@H]2CC[C@@]3(c4ccc(OC)c(OC)c4)CCN(C)[C@H]3C2)c(C)c1` [CBK036460T]: the viability at 28.5 h, 10 µM came to 97.2%.

For `CN1CCN(C(=O)c2ccc(-c3ccoc3)nc2)CC1` [CBK156280], the viability at 28.5 h, 10 µM was found to be 100%.

As to `O=C(/C=C/c1cccnc1)Nc1cncc(OC2CCNCC2)n1` [CBK038919T], the viability at 28.5 h, 10 µM came to 96.9%.

In the case of `O=C(Nc1ccc2nc(-c3ccc(-c4nc5ccc(NC(=O)c6cccs6)cc5[nH]4)cc3)[nH]c2c1)c1cccs1` [CBK261590], the viability at 28.5 h, 10 µM amounted to 87.1%.

Consider `O=C(NCc1cn2ccccc2n1)c1ccc(C2SCCS2)cc1` [CBK295167], for which the viability at 28.5 h, 10 µM was determined as 83.5%.

Take `C=CCNC(=O)C[C@@H]1CCN(C(=O)c2ccnc(Cl)c2)C[C@@H]1CC` [CBK289136]: the viability at 28.5 h, 10 µM is 94.3%.

For `Cc1noc(C)c1NC(=O)c1n[nH]c2ccccc12` [CBK200301], the viability at 28.5 h, 10 µM is 104%.

For the compound `COc1ccc(NC(=S)NC(=O)c2cc3c(C)nn(-c4ccccc4)c3s2)cc1[N+](=O)[O-]` [CBK265324], the viability at 28.5 h, 10 µM is 102%.

As for `c1ccc(NCc2ncnc3c2ncn3C2CCCCO2)cc1` (stereo not shown) [CBK021593], the viability at 28.5 h, 10 µM was 100%.

As for `Cc1nn(CC(=O)N2CCN(C)CC2)c(=O)c2ccccc12` [CBK304221], the viability at 28.5 h, 10 µM came to 93.3%.

On to `O=C(Nc1cc2ccccc2c(Br)n1)N[C@@H]1C[C@H]1c1ccccc1` [CBK063276], for which the viability at 28.5 h, 10 µM came out at 92.3%.

With `CC1C(=O)N2CCCc3cc(S(=O)(=O)NCc4ccc5c(c4)OCO5)cc1c32` (stereo not shown) [CBK294419], the viability at 28.5 h, 10 µM was 107%.

Turning to `COc1ccc(Oc2ccc(C=Cc3nc4sc(C(=O)O)c(C)c4c(=O)[nH]3)cc2[N+](=O)[O-])cc1` [CBK295637], the viability at 28.5 h, 10 µM was 112%.

On to `COC(=O)c1ccc(-c2cn3ccnc3c(NCc3ccncc3)n2)cc1` [CBK066734], for which the viability at 28.5 h, 10 µM turned out to be 88.2%.

Consider `COc1ccccc1NC(=O)C(c1ccccc1)N1CCOCC1` (stereo not shown) [CBK269561], for which the viability at 28.5 h, 10 µM amounted to 107%.

Regarding `Cc1nnc(CCNC2CCN(c3ncnc4c(C)csc34)CC2)s1` [CBK307574], the viability at 28.5 h, 10 µM was determined as 84.9%.

`CCn1c(=O)n(CC(=O)NC2CCCCC2)c2cccnc21` [CBK283810]: the viability at 28.5 h, 10 µM turned out to be 83.6%.

As for `CCn1c2cc(C)sc2c2cnn(CC(=O)NC3CC3)c(=O)c21` [CBK284170], the viability at 28.5 h, 10 µM was found to be 89.3%.

Turning to `O=C(CCn1cccn1)N1Cc2ccccc2CC1C1CCOCC1` (stereo not shown) [CBK282262], the viability at 28.5 h, 10 µM came out at 83.8%.

Take `Nc1cc2ccccc2c(-c2cc(F)cc(F)c2)n1` [CBK085711]: the viability at 28.5 h, 10 µM stood at 97%.

In the case of `O=C(c1ccc(OC(F)(F)F)cc1)N1CCN(c2nnnn2-c2ccccc2)CC1` [CBK296622], the viability at 28.5 h, 10 µM is 93.5%.

Regarding `Nc1ccc2ccc(-c3ccsc3)nc2n1` [CBK067624], the viability at 28.5 h, 10 µM was 89.4%.

Take `CN(C)S(=O)(=O)N(CC(=O)Nc1cccc([N+](=O)[O-])c1)c1ccccc1` [CBK265904]: the viability at 28.5 h, 10 µM turned out to be 90.2%.

With `O=C(O)c1ccc(NS(=O)(=O)c2ccc3c(c2)C(=O)c2ccccc2C3=O)cc1` [CBK299828], the viability at 28.5 h, 10 µM was found to be 88.3%.

For `CC(=O)c1ccc(-c2ccc(C(=O)NCC3COc4ccccc4O3)c(N(C)C(C)=O)n2)s1` (stereo not shown) [CBK076637], the viability at 28.5 h, 10 µM stood at 114%.

Consider `Cc1nc([N+](=O)[O-])c(NCCO)n1Cc1ccccc1` [CBK261422], for which the viability at 28.5 h, 10 µM stood at 88.5%.

Regarding `Cc1ccccc1Sc1ccc(C(F)(F)F)cn1` [CBK115237], the viability at 28.5 h, 10 µM stood at 112%.

As for `CCOC(=O)C1CSCN1C(=O)c1cnn(C(CC)CC)c1C` (stereo not shown) [CBK304759], the viability at 28.5 h, 10 µM came to 106%.

Regarding `CCOc1ccc(CCNC(=O)c2cnc(Nc3ccccc3OC)c3ccccc23)cc1OCC` [CBK291185], the viability at 28.5 h, 10 µM worked out at 94.5%.

As for `Cc1ccc(N2CCCn3c2nc2c3c(=O)n(CC(=O)O)c(=O)n2C)cc1` [CBK286740], the viability at 28.5 h, 10 µM came out at 90.5%.

Take `Cc1ccc(C(=O)O)cc1NC(=S)NC1CC1` [CBK288397]: the viability at 28.5 h, 10 µM is 94.4%.

As for `CC(CN1CCCCC1)NC(=O)c1cc(-c2ccncc2)nc2ccc(Br)cc12` (stereo not shown) [CBK267756], the viability at 28.5 h, 10 µM was 90.6%.

Regarding `Cc1cc(N2CCC(O)CC2)nc(N)n1` [CBK167265], the viability at 28.5 h, 10 µM worked out at 109%.

Take `O=C1CC2(C(=O)N1CCC1CCCCC1)C(=O)N(Cc1ccccc1)c1ccc(F)cc12` (stereo not shown) [CBK075175]: the viability at 28.5 h, 10 µM was found to be 91%.

Take `N#Cc1cnn(-c2ccc(Cl)cc2Cl)c1N` [CBK086125]: the viability at 28.5 h, 10 µM amounted to 89.2%.

In the case of `NC(=O)NCc1ccc(F)cc1` [CBK019769], the viability at 28.5 h, 10 µM came to 110%.

Consider `COC1=CC2CCNC(CCCCC3NCCc4cc(OC)c(OC)cc43)C2C=C1OC` (stereo not shown) [CBK013354], for which the viability at 28.5 h, 10 µM was 87%.

On to `CC(C)(C)NC(=O)Cn1c(=O)n(Cc2cccs2)c2ncccc21` [CBK283844], for which the viability at 28.5 h, 10 µM stood at 104%.

In the case of `O=C(CN(Cc1ccc(Cl)cc1Cl)S(=O)(=O)c1ccccc1)Nc1c(F)cccc1F` [CBK265801], the viability at 28.5 h, 10 µM is 99.1%.

Turning to `Cc1cccc(NS(=O)(=O)c2ccc(OCC(=O)Nc3ccc4c(c3)OCCO4)cc2)c1` [CBK268068], the viability at 28.5 h, 10 µM was found to be 111%.

For the compound `CCn1c(C2CCN(C(=O)c3ccc(C)c(Cl)c3)CC2)nn(C)c1=O` [CBK307280], the viability at 28.5 h, 10 µM is 95.9%.

As to `COc1ccc(C2(CNC(=O)c3ccc(C)cc3)CCOCC2)cc1` [CBK067060], the viability at 28.5 h, 10 µM came to 108%.

`CN(C)CCCN(C(=O)c1ccccc1)c1nc2ccc(F)cc2s1` [CBK287640]: the viability at 28.5 h, 10 µM was determined as 97.4%.

Take `COc1cc(CNc2cc(-c3ccc(NC(C)=O)cc3)ncn2)cc(OC)c1OC` [CBK091185]: the viability at 28.5 h, 10 µM was found to be 93.6%.

For the compound `CC(C)C(=O)NC1CCN(C(=O)CCn2ccc3ccncc32)CC1` [CBK284730], the viability at 28.5 h, 10 µM was found to be 98%.

Consider `CC(=O)N1Cc2ccccc2OC2(CCN(C(=O)C3CC3)CC2)C1` [CBK285037], for which the viability at 28.5 h, 10 µM was found to be 104%.

For the compound `CC(=O)c1ccc(-c2nccnc2N(C)Cc2ccccc2)s1` [CBK037504], the viability at 28.5 h, 10 µM amounted to 112%.

For the compound `O=C(NC1Cc2ccccc2C1)c1cscn1` [CBK200363], the viability at 28.5 h, 10 µM came to 93.5%.

Regarding `Cc1cc(NS(=O)(=O)c2ccc(NC(=S)NC3CCCCC3)cc2)no1` [CBK268157], the viability at 28.5 h, 10 µM came to 91.3%.

On to `CCOC(=O)NC(=O)c1cn(N2CCOCC2)c(=O)[nH]c1=O` [CBK004845], for which the viability at 28.5 h, 10 µM came to 104%.

As for `O=C(CSc1nc2ccccc2c(=O)[nH]1)Nc1ccccc1O` [CBK269738], the viability at 28.5 h, 10 µM is 104%.

Take `Cc1ccc(Cl)cc1N=C(N)N=C(N)N` [CBK268049]: the viability at 28.5 h, 10 µM was found to be 98.8%.

As for `COc1ccc(F)c(CN(CC(C)(C)CN)C(=O)Nc2ccccc2C(C)(C)C)c1` [CBK002478C], the viability at 28.5 h, 10 µM was 98.1%.

`Cc1cccn2c(=O)c(/C=C3\SC(=S)N(CC4CCCO4)C3=O)c(NCCCn3ccnc3)nc12` (stereo not shown) [CBK263825]: the viability at 28.5 h, 10 µM worked out at 119%.

`COc1ccc(CN2C(=O)CS(=O)(=O)CC2=O)cc1OC` [CBK011127]: the viability at 28.5 h, 10 µM worked out at 86.4%.

With `CN(C)C(=O)C1(Cc2ccccc2-c2cccnc2)CCN(Cc2ccccc2)CC1` [CBK285522], the viability at 28.5 h, 10 µM was determined as 85.7%.
